These results are taken from publication PMC7911889 (Viruses, 2021).

Like-named read-outs stand apart in the source and are kept apart here. Non-standard residues stand in square brackets, D forms with d. Residues, ends and D or L forms follow the SMILES beside them. *: point of attachment. Nva = CCC[C@H](N)C(=O)O; Cbz = O=C(OCc1ccccc1)* A value given as a limit tells only on which side of the number the result lay.

The nature of one series: in vitro. The settings on record: human.
The subject of the next series is cell culture. The settings on record: cited from earlier work.
The test system of series [1] is 293T human embryonic kidney cells.
Another series relates to SARS-CoV-2. Further details: method as in per compound as in References column of Table 1. The settings on record: read-out: Reported EC50 for inhibition of SARS-CoV-2 replication in cell culture; cited from earlier work.
[2] abbreviates: read-out: CC50, CellTiter-Glo 2.0 assay, transfected 293T cells, 30 h post-transfection.
[3] abbreviates: transfected 293T cells (human embryonic kidney).

On to `CC(C)CN(C[C@@H](O)[C@H](Cc1ccccc1)NC(=O)O[C@H]1CCOC1)S(=O)(=O)c1ccc(N)cc1` [Amprenavir], for which the CC50 at 30 h post-transfection in the series “in vitro” was above 100 µM.
`C=C[C@@H]1C[C@]1(NC(=O)[C@@H]1C[C@@H](Oc2ncc(OC)c3ccc(Cl)cc23)CN1C(=O)[C@@H](NC(=O)OC(C)(C)C)C(C)(C)C)C(=O)NS(=O)(=O)C1CC1` [Asunaprevir] yielded a CC50 in “in vitro” of 31.5 µM.
On to `COC(=O)N[C@H](C(=O)N[C@@H](Cc1ccccc1)[C@@H](O)CN(Cc1ccc(-c2ccccn2)cc1)NC(=O)[C@@H](NC(=O)OC)C(C)(C)C)C(C)(C)C` [Atazanavir], for which the CC50 at 30 h post-transfection in the series “in vitro” is above 100 µM.
The compound `O=c1cc(-c2ccccc2)oc2cc(O)c(O)c(O)c12` [Baicalein] returned a CC50 in the series “in vitro” above 100 µM.
For `CC(C)(C)NC(=O)N[C@H](C(=O)N1C[C@H]2[C@@H]([C@H]1C(=O)NC(CC1CCC1)C(=O)C(N)=O)C2(C)C)C(C)(C)C` (stereo partly drawn) [Boceprevir], in the series with cell culture, the “Reported CC50 (corresponding to reported EC50)” value (shortened to “Reported CC50”) is >100–>200. In “in vitro”, the CC50 at 30 h post-transfection is above 100 µM.
Regarding `CSCC[C@@H](C=O)NC(=O)[C@H](CC(C)C)NC(=O)[C@H](CC(C)C)NC(C)=O` [Calpain Inhibitor II] (Ac-Leu-Leu-Met-aldehyde), the “Reported CC50” value with cell culture was above 100 µM. Also, in series [1], the CC50 was above 100 µM.
As to `CCCC(NC(=O)C(CC(C)C)NC(=O)OCc1ccccc1)C(=O)C(=O)NCc1ccccn1` (stereo not drawn) [Calpain Inhibitor XII], in the series with cell culture, the “Reported CC50” value is reported as above 100 µM. This compound showed a CC50 in series [1] above 100 µM.
Consider `O=C1C(Cl)=C(NCCN2CCOCC2)C(=O)c2ncccc21` [DA-3003-1], for which the “Reported CC50” value in the series on cell culture is on record as 7.7 µM. Besides, the CC50 in series [1] (setting [2]) came out at 7.7 µM.
Regarding `CC(C)CN(C[C@@H](O)[C@H](Cc1ccccc1)NC(=O)O[C@H]1CO[C@H]2OCC[C@H]21)S(=O)(=O)c1ccc(N)cc1` [Darunavir], in the series with SARS-CoV-2, the EC50 (in general, the concentration that produces a half-maximal response) is 46.4 µM.
Take `O=c1c2ccccc2[se]n1-c1ccccc1` [Ebselen]: the CC50 in the series “in vitro” came out at 8 µM.
As to `CC(C)C[C@H](NC(=O)OCc1ccccc1)C(=O)N[C@@H](CC1CCNC1=O)C(O)S(=O)(=O)O` (stereo partly drawn) [GC376], the EC50 with SARS-CoV-2 was 0.2 to 4.5 µM. Further, the CC50 in series [1] was above 100 µM.
As to `CC(C)C[C@H](NC(=O)OCc1ccccc1)C(=O)N[C@@H](C[C@@H]1CCNC1=O)C(O)S(=O)(=O)[O-].[Na+]` (stereo partly drawn) [GC376], the “Reported CC50” value in the series with cell culture is reported as >100–>200. Further, in series [1], the “Effect on cell viability (in words)” value was “no significant effect on cell viability up to 100 µM”.
In series [1], `C=C[C@@H]1C[C@]1(NC(=O)[C@@H]1C[C@@H]2CN1C(=O)[C@H](C(C)(C)C)NC(=O)O[C@@H]1C[C@H]1CCCCCc1nc3ccc(OC)cc3nc1O2)C(=O)NS(=O)(=O)C1CC1` [Grazoprevir] had a CC50 of 57.4 µM.
In turn, `CC(C)(C)NC(=O)[C@@H]1CN(Cc2cccnc2)CCN1C[C@@H](O)C[C@@H](Cc1ccccc1)C(=O)N[C@H]1c2ccccc2C[C@H]1O` [Indinavir] registered a CC50 in “in vitro” above 100 µM.
The same measure, in the same setting: the value for `Cc1cccc(C)c1OCC(=O)N[C@@H](Cc1ccccc1)[C@@H](O)C[C@H](Cc1ccccc1)NC(=O)[C@H](C(C)C)N1CCCNC1=O` [Lopinavir] was 29.1 µM.
Turning to `O=C(Oc1cncc(Cl)c1)c1cccs1` [MAC 5576], the “Reported CC50” value in the series with cell culture is above 100 µM. Also, the CC50 in series [1] was above 100 µM.
`CCC[C@@H](C=O)NC(=O)[C@H](CC(C)C)NC(=O)[C@H](CC(C)C)NC(=O)OCc1ccccc1` [MG-115] (Cbz-Leu-Leu-[Nva]-aldehyde): the “Reported CC50” value with cell culture is 1.1 µM. Moreover, the CC50 in series [1] (setting [2]) was determined as 11 µM.
`COc1ccc2cc(-c3cc(-c4cc(Cl)cc(Cl)c4)nn3[C@@H](C)c3ccc(C(=O)NCCC(=O)O)cc3)ccc2c1` [MK 0893]: the concentration for a half-maximal effect (EC50) in the series on SARS-CoV-2 was 3.2 µM. Also, the “Reported CC50” value in the series on cell culture is 12.6 µM. Besides, in “in vitro”, the CC50 turned out to be 42.3 µM.
In turn, `Cc1ccc(NC(=O)c2ccc(CN3CCN(C)CC3)cc2)cc1Nc1nc(-c2cccnc2)cs1` [Masitinib] yielded a CC50 at 30 h post-transfection in “in vitro” (setting [3]) of 3 µM.
In the case of `Cc1c(O)cccc1C(=O)N[C@@H](CSc1ccccc1)[C@H](O)CN1C[C@H]2CCCC[C@H]2C[C@H]1C(=O)NC(C)(C)C` [Nelfinavir], the CC50 in the series “in vitro” was 11.2 µM.
In “in vitro”, `CCN(CC)CCCC(C)Nc1c2ccc(Cl)cc2nc2ccc(OC)cc12` (stereo not drawn) [Quinacrine] gave a CC50 of 2.5 µM.
In the case of `CC(C)(C)NC(=O)[C@@H]1C[C@@H]2CCCC[C@@H]2CN1C[C@@H](O)[C@H](Cc1ccccc1)NC(=O)[C@H](CC(N)=O)NC(=O)c1ccc2ccccc2n1` [Saquinavir], the CC50 in the series “in vitro” was 27.3 µM.
With `COc1ccc2c(O[C@@H]3C[C@H]4C(=O)N[C@]5(C(=O)NS(=O)(=O)C6CC6)C[C@H]5/C=C\CCCCN(C)C(=O)[C@@H]4C3)cc(-c3nc(C(C)C)cs3)nc2c1C` [Simeprevir], the CC50 at 30 h post-transfection in the series “in vitro” stood at 19.6 µM.
On to `Cc1ccc(C(=O)Nc2ccc(S(=O)(=O)O)c3cc(S(=O)(=O)O)cc(S(=O)(=O)O)c23)cc1NC(=O)c1cccc(NC(=O)Nc2cccc(C(=O)Nc3cc(C(=O)Nc4ccc(S(=O)(=O)O)c5cc(S(=O)(=O)O)cc(S(=O)(=O)O)c45)ccc3C)c2)c1` [Suramin], for which the 50% effective concentration (EC50) in the series on SARS-CoV-2 is 20 µM. For the same compound, the “Reported CC50” value in the series on cell culture was >20–>5000. The CC50 in the series “in vitro” was above 100 µM.
In the case of `Brc1c(Br)c(Br)c2n[nH]nc2c1Br` [TBB], the “Reported CC50” value in the series on cell culture is on record as 8.9 µM.
For `COc1cc(C)c2c(Oc3cccc(C(F)(F)F)c3)c(OC)cc(NC(C)CCCN)c2n1` (stereo not drawn) [Tafenoquine], in the series on cell culture, the “Reported CC50” value is listed as 37.2 µM. The CC50 at 30 h post-transfection in “in vitro” turned out to be 2 µM.
Regarding `CCC[C@H](NC(=O)[C@@H]1[C@H]2CCC[C@H]2CN1C(=O)[C@@H](NC(=O)[C@@H](NC(=O)c1cnccn1)C1CCCCC1)C(C)(C)C)C(=O)C(=O)NC1CC1` [Telaprevir], in the series “in vitro” (setting [3]), the CC50 at 30 h post-transfection came out at 71.5 µM.
Turning to `CCC[C@@]1(CCc2ccccc2)CC(O)=C([C@H](CC)c2cccc(NS(=O)(=O)c3ccc(C(F)(F)F)cn3)c2)C(=O)O1` [Tipranavir], the CC50 at 30 h post-transfection in “in vitro” amounted to 85.1 µM.
Turning to `Cn1nc(-c2ccc(C(F)(F)F)cc2)nc2c(=O)n(C)c(=O)nc1-2` [Walrycin B], the “Reported CC50” value in the series with cell culture was 4.3 µM. Moreover, the CC50 in series [1] is 29 µM.
Turning to `CC(NC(=O)[C@H](Cc1ccccc1)NC(=O)OCc1ccccc1)C(=O)CF` (stereo partly drawn) [Z-FA-FMK], the “Reported CC50” value with cell culture is above 20 µM. Also, the CC50 in series [1] (setting [2]) is above 100 µM.
Take `COc1cccc2c1C(=O)c1c(O)c3c(c(O)c1C2=O)C[C@@](O)(C(=O)CO)C[C@@H]3O[C@H]1C[C@H](N)[C@H](O)[C@H](C)O1` [doxorubicin]: the CC50 at 30 h post-transfection in the series “in vitro” (setting [3]) is 3.7 µM.
For the compound `O.O=C(OC[C@H]1O[C@@H](OC(=O)c2cc(O)c(O)c(O)c2)[C@H](OC(=O)c2cc(O)c(O)c(O)c2)[C@@H](OC(=O)c2cc(O)c(O)c(O)c2)[C@@H]1OC(=O)c1cc(O)c(O)c(O)c1)c1cc(O)c(O)c(O)c1` [penta-O-galloyl-beta-D-glucose hydrate], the “Reported CC50” value with cell culture is reported as 11.2 µM. This compound also showed a CC50 in series [1] of 30.4 µM.
Turning to GRL-0496, in the series with SARS-CoV-2, the concentration for a half-maximal effect (EC50) is 9.1 µM. Moreover, the “Reported CC50” value in the series with cell culture is 81.0 µM. Moreover, the CC50 in series [1] turned out to be 53.2 µM.
